Source: patent US20250144067A1, “PERSONALIZED STARVATION THERAPY FOR CANCER” (Faeth Therapeutics, Inc., priority 2021, published 2025)
Read-outs that look alike come from different tables or passages of the source. Ends that are not written are not given here.

Key:
[1] = system: NCI-H292 lung cancer cells; assay: FDA drug screening, complete media vs cholesterol-free media with simvastatin (TABLE 2); format: cell-based, human
[2] = system: NCI-H292 lung cancer cells; assay: FDA drug screening, complete media vs cholesterol-free media without statin (TABLE 1); format: cell-based, human
[3] = NCI-H292 cells, drug in cholesterol-free media with simvastatin 0.04 μM
[4] = NCI-H292 cells, drug in complete media
[5] = complete media vs cholesterol-free media + simvastatin (0.04 μM), […]
[6] = Complete minus Cholesterol-free, […]
[7] = NCI-H292 cells, FDA drug library screen, cholesterol-free media without statin
[8] = NCI-H292 cells, FDA drug library screen, complete media
[9] = NCI-H292 cells, FDA drug library screen, cholesterol-free media with simvastatin 0.04 μM
[10] = complete media minus cholesterol-free media + simvastatin, >0 enhanced anti-cancer activity, about 0 neutral, <0 antagonist
[11] = Complete minus Cholesterol-free, greater than 0 enhanced anti-cancer activity, about 0 neutral, below 0 antagonists
[12] = NCI-H292 cells in cholesterol-free media without statin
[13] = NCI-H292 cells in complete media
[14] = complete media minus cholesterol-free media + simvastatin, […]
[15] = Complete minus Cholesterol-free, greater than 0 enhanced anti-cancer activity, about 0 neutral, below 0 antagonist
[16] = NCI-H292 cells, FDA library drug in cholesterol-free media with simvastatin 0.04 μM
[17] = complete media vs cholesterol-free media + simvastatin (0.04 μM), >0 enhanced anti-cancer activity, about 0 neutral, <0 antagonist
[18] = NCI-H292 cells, cholesterol-free media without statin, FDA drug library screen
[19] = NCI-H292 cells, complete media, FDA drug library screen
[20] = NCI-H292 cells, cholesterol-free media with simvastatin 0.04 μM, […]
[21] = NCI-H292 cells, complete media, […]
[22] = NCI-H292 cells, cholesterol-free media without statin
[23] = complete vs cholesterol-free media, […]
[24] = Complete minus Cholesterol-free, >0 enhanced anti-cancer activity, about 0 neutral, <0 antagonist
[25] = NCI-H292 cells, cholesterol-free media with simvastatin 0.04 μM, FDA drug library screen (TABLE 2)
[26] = complete media minus cholesterol-free media + simvastatin (0.04 μM), […]
[27] = NCI-H292 cells, complete media, FDA drug library screen (TABLE 2)
[28] = complete media minus cholesterol-free media + simvastatin (0.04 μM), >0 enhanced anti-cancer activity, about 0 neutral, <0 antagonist
[29] = NCI-H292 cells, cholesterol-free media with simvastatin 0.04 μM, cell growth value in FDA drug screen
[30] = NCI-H292 cells, complete media, cell growth value in FDA drug screen
[31] = complete vs cholesterol-free media, greater than 0 enhanced anti-cancer activity, about 0 neutral, below 0 antagonists

Brimonidine (tartrate)
Cholesterol-free media + simvastatin (0.04 μM) [1]: 1.704 | Complete Media [1]: 1.309 | Difference [1]: −0.39 | Cholesterol-free [2]: 1.093 | Complete [2]: 0.9545 | Difference [2]: −0.14

Bromocriptine (mesylate)
Cholesterol-free media + simvastatin (0.04 μM) [1, 3]: 0.9355 | Complete Media [1, 4]: 0.7343 | Difference [1, 5]: −0.20 | Difference [2, 6]: −0.12 | Cholesterol-free [2, 7]: 0.9359 | Complete [2, 8]: 0.8127

Brompheniramine (maleate)
Cholesterol-free media + simvastatin (0.04 μM) [1, 9]: 0.8932 | Complete Media [1, 8]: 1.189 | Difference [1, 10]: 0.30 | Difference [2, 11]: −0.54 | Cholesterol-free [2, 12]: 1.443 | Complete [2, 13]: 0.9065

Bulleyaconitine A
Difference [1, 14]: 0.03 | Difference [2, 6]: −0.17 | Cholesterol-free [2, 7]: 1.261 | Complete [2, 8]: 1.091

Butoconazole (nitrate)
Cholesterol-free media + simvastatin (0.04 μM) [1, 9]: 0.1838 | Complete Media [1, 8]: 0.9232 | Difference [1, 10]: 0.74 | Difference [2, 15]: −0.19 | Cholesterol-free [2, 7]: 0.9845 | Complete [2, 8]: 0.7977

Camostat (mesylate)
Cholesterol-free media + simvastatin (0.04 μM) [1, 16]: 1.328 | Difference [1, 17]: −0.30 | Cholesterol-free [2, 18]: 0.6104 | Complete [2, 19]: 0.9828 | Difference ([2]; complete vs cholesterol-free media, >0 enhanced anti-cancer activity, about 0 neutral, <0 antagonist): 0.37

Capreomycin (sulfate)
Cholesterol-free media + simvastatin (0.04 μM) [1, 20]: 0.9008 | Complete Media [1, 21]: 0.9756 | Difference [1, 14]: 0.07 | Cholesterol-free [2, 22]: 1.728 | Complete ([2]; NCI-H292 cells, complete media): 1.371 | Difference [2, 23]: −0.36

Carbasalate calcium
Complete Media [1, 21]: 1.129 | Difference [1, 14]: 0.02 | Difference [2, 6]: −0.21 | Cholesterol-free [2, 22]: 1.087 | Complete ([2]; NCI-H292 cells, complete media): 0.8754

Carbetapentane (citrate)
Cholesterol-free media + simvastatin (0.04 μM) [1, 9]: 0.8092 | Complete Media [1, 8]: 1.195 | Difference [1, 10]: 0.39 | Difference [2, 24]: −0.21 | Cholesterol-free [2, 22]: 1.181 | Complete ([2]; NCI-H292 cells, complete media): 0.9736

Carbinoxamine maleate salt
Cholesterol-free media + simvastatin (0.04 μM) [1, 9]: 0.757 | Complete Media [1, 8]: 1.12 | Difference [1, 10]: 0.36 | Difference [2, 24]: −0.20 | Cholesterol-free [2, 22]: 1.129 | Complete ([2]; NCI-H292 cells, complete media): 0.9247

Catechin
Cholesterol-free media + simvastatin (0.04 μM) [1, 25]: 1.661 | Difference [1, 26]: −0.02 | Complete ([2]; NCI-H292 cells, complete media): 0.7264 | Difference [2, 23]: −0.38

Cetrorelix (Acetate)
Cholesterol-free media + simvastatin (0.04 μM) [1, 20]: 1.03 | Difference [1, 14]: 0.08 | Difference [2, 6]: −1.14 | Cholesterol-free [2, 12]: 1.889 | Complete [2, 13]: 0.7459

Chloramphenicol succinate (sodium)
Cholesterol-free media + simvastatin (0.04 μM) [1]: 0.9173 | Complete Media [1]: 0.8083 | Difference [1]: −0.11 | Cholesterol-free [2]: 0.9119 | Complete [2]: 0.8447 | Difference [2]: −0.07

Chloroquine (phosphate)
Cholesterol-free media + simvastatin (0.04 μM) [1]: 1.286 | Complete Media [1]: 0.98 | Difference [1]: −0.31 | Cholesterol-free [2]: 1.557 | Complete [2]: 0.9171 | Difference [2]: −0.64

Chlorpheniramine (maleate)
Cholesterol-free media + simvastatin (0.04 μM) [1, 25]: 1.426 | Complete Media [1, 27]: 1.414 | Difference [1, 28]: −0.01 | Difference [2, 11]: −0.51 | Cholesterol-free [2, 12]: 1.451 | Complete [2, 13]: 0.9428

Chondroitin (sulfate)
Cholesterol-free media + simvastatin (0.04 μM) [1, 20]: 1.097 | Complete Media [1, 21]: 1.158 | Difference [1, 14]: 0.06 | Difference [2, 6]: −0.48 | Cholesterol-free [2, 12]: 1.247 | Complete [2, 13]: 0.7715

Cinepazide (Maleate)
Cholesterol-free media + simvastatin (0.04 μM) [1, 9]: 1.132 | Complete Media [1, 8]: 1.001 | Difference [1, 5]: −0.13 | Cholesterol-free [2, 18]: 0.7192 | Complete [2, 19]: 1.265 | Difference [2, 23]: 0.55

Cisatracurium (besylate)
Cholesterol-free media + simvastatin (0.04 μM) [1, 9]: 1.09 | Complete Media [1, 8]: 1.349 | Difference [1, 10]: 0.26 | Difference [2, 15]: −0.15 | Cholesterol-free [2, 7]: 1.321 | Complete [2, 8]: 1.173

Clebopride (malate)
Cholesterol-free media + simvastatin (0.04 μM) [1, 25]: 0.7532 | Complete Media [1, 27]: 0.7281 | Difference [1, 28]: −0.03 | Difference [2, 24]: −0.29 | Cholesterol-free [2, 22]: 0.9703 | Complete ([2]; NCI-H292 cells, complete media): 0.6807

Clemastine (fumarate)
Cholesterol-free media + simvastatin (0.04 μM) [1, 29]: 0.8829 | Difference [1, 10]: 0.12 | Difference [2, 11]: −0.61 | Cholesterol-free [2, 12]: 1.716

Clomiphene (citrate)
Cholesterol-free media + simvastatin (0.04 μM) [1, 9]: 0.1462 | Complete Media [1, 8]: 1.001 | Difference [1, 10]: 0.85 | Difference [2, 24]: −0.25 | Cholesterol-free [2, 22]: 1.001 | Complete ([2]; NCI-H292 cells, complete media): 0.7484

Clopidogrel (hydrogen sulfate)
Cholesterol-free media + simvastatin (0.04 μM) [1, 3]: 1.048 | Complete Media [1, 4]: 0.8246 | Difference [1, 17]: −0.22 | Difference [2, 15]: −0.10 | Cholesterol-free [2, 7]: 1.157 | Complete [2, 8]: 1.053

Cobimetinib (hemifumarate)
Cholesterol-free media + simvastatin (0.04 μM) [1, 3]: 0.5239 | Complete Media [1, 4]: 0.3203 | Difference [1, 17]: −0.20 | Difference [2, 24]: 0.01 | Cholesterol-free [2, 18]: 0.2855 | Complete [2, 19]: 0.2917

Colistin (sulfate)
Cholesterol-free media + simvastatin (0.04 μM) [1, 3]: 1.189 | Complete Media [1, 4]: 0.9801 | Difference [1, 5]: −0.21 | Difference [2, 23]: 0.08

Cyclic somatostatin (AGCKNFFWKTFTSC; not fully specified (bridges); cysteine pairing not given here; UniProt P61278 103-116, looked up)
Cholesterol-free media + simvastatin (0.04 μM) [1, 25]: 0.9769 | Difference [1, 26]: −0.04 | Difference [2, 6]: 0.00 | Cholesterol-free [2, 18]: 1.02 | Complete [2, 19]: 1.023

Dabigatran etexilate (mesylate)
Cholesterol-free media + simvastatin (0.04 μM) [1, 9]: 1.092 | Complete Media [1, 8]: 0.9893 | Difference [1, 17]: −0.10 | Difference [2, 24]: −0.23 | Cholesterol-free [2, 22]: 1.215 | Complete ([2]; NCI-H292 cells, complete media): 0.9831

Dabrafenib (Mesylate)
Cholesterol-free media + simvastatin (0.04 μM) [1, 9]: 0.4336 | Complete Media [1, 8]: 0.6478 | Difference [1, 14]: 0.21 | Cholesterol-free [2, 18]: 0.4044 | Complete [2, 19]: 0.6337 | Difference [2, 23]: 0.23

Danofloxacin (mesylate)
Cholesterol-free media + simvastatin (0.04 μM) [1, 29]: 0.9788 | Complete Media [1, 30]: 1.081 | Difference [1, 10]: 0.10 | Difference [2, 11]: −0.77 | Cholesterol-free [2, 12]: 1.786 | Complete [2, 13]: 1.013

Deferoxamine (mesylate)
Cholesterol-free media + simvastatin (0.04 μM) [1, 16]: 1.454 | Difference [1, 17]: −0.43 | Difference [2, 15]: −0.12 | Cholesterol-free [2, 7]: 0.9976 | Complete [2, 8]: 0.8739

Delavirdine (mesylate)
Cholesterol-free media + simvastatin (0.04 μM) [1, 29]: 0.9532 | Difference [1, 10]: 0.08 | Difference [2, 15]: −0.10 | Cholesterol-free [2, 7]: 1.071 | Complete [2, 8]: 0.9729

Dexchlorpheniramine (maleate)
Cholesterol-free media + simvastatin (0.04 μM) [1, 25]: 0.9393 | Complete Media [1, 27]: 0.9459 | Difference [1, 28]: 0.01 | Difference [2, 24]: −0.05

Diethylcarbamazine (citrate)
Cholesterol-free media + simvastatin (0.04 μM) [1, 29]: 0.703 | Complete Media [1, 30]: 0.7247 | Difference [1, 10]: 0.02 | Cholesterol-free [2, 22]: 1.324 | Complete ([2]; NCI-H292 cells, complete media): 0.9451 | Difference [2, 31]: −0.38

Dihydroergocristine (mesylate)
Cholesterol-free media + simvastatin (0.04 μM) [1, 9]: 1.12 | Complete Media [1, 8]: 1.011 | Difference [1, 5]: −0.11 | Difference [2, 6]: −0.17

Dihydroergotamine (mesylate)
Complete Media [1, 4]: 0.9713 | Difference [1, 5]: −0.18 | Difference [2, 6]: −0.20 | Cholesterol-free [2, 22]: 1.021 | Complete ([2]; NCI-H292 cells, complete media): 0.8213

Dimemorfan (phosphate)
Cholesterol-free media + simvastatin (0.04 μM) [1, 25]: 0.9385 | Complete Media [1, 27]: 0.8687 | Difference [1, 26]: −0.07 | Difference [2, 6]: −0.08 | Cholesterol-free [2, 7]: 0.9351 | Complete [2, 8]: 0.8552

Dimenhydrinate
Cholesterol-free media + simvastatin (0.04 μM) [1, 29]: 0.8945 | Complete Media [1, 30]: 0.9753 | Difference [1, 10]: 0.08 | Cholesterol-free [2, 22]: 1.237 | Complete ([2]; NCI-H292 cells, complete media): 0.8523 | Difference [2, 31]: −0.39

Disodium succinate
Cholesterol-free media + simvastatin (0.04 μM) [1]: 1.636 | Complete Media [1]: 1.676 | Difference [1]: 0.04 | Cholesterol-free [2]: 1.636 | Complete [2]: 0.8171 | Difference [2]: −0.82

Doxazosin (mesylate)
Cholesterol-free media + simvastatin (0.04 μM) [1, 16]: 1.325 | Complete Media ([1]; NCI-H292 cells, FDA library drug in complete media): 0.9839 | Difference [1, 17]: −0.34 | Difference [2, 11]: −0.61 | Cholesterol-free [2, 12]: 1.69 | Complete [2, 13]: 1.083
